Measurements reported in patent US20070037709A1, “Polyethylene glycol esters of r-(+)-mcpp acid” (priority 2003, published 2007).
Read-outs that look alike come from different tables or passages of the source.

What was measured:
lupin = tested on: lupin
Experimental: The compounds and mixtures of Examples 1 and 2 were tested for their activity for root penetration inhibition as specified in DIN 4062 (lupin test): […]

undesired plants = conditions: crop protection; cited from earlier work

SMILES	Root penetration into (number) (lupin; Concentration 0.1%)	Root penetration through (number) (lupin; Concentration 0.1%)	Root penetration into (number) (lupin; Concentration 0.2%)	Root penetration through (number) (lupin; Concentration 0.2%)	Root penetration into (number) (lupin; Concentration 0.5%)	Root penetration through (number) (lupin; Concentration 0.5%)	Root penetration into (number) (lupin; Concentration 1.0%)	Root penetration through (number) (lupin; Concentration 1.0%)	herbicidal effectiveness compared with the S-(−) isomer or the racemic mixture (undesired plants)
Cc1cc(Cl)ccc1OC(C)C(=O)OCCOCCOCCOCCOC(=O)C(C)Oc1ccc(Cl)cc1C (racemic) [Example 2, diester of tetraethylene glycol with rac-2-(4-chloro-2-methylphenoxy)propionic acid]	approx. 40 number	1 number	approx. 40 number	0 number	approx. 10 number	0 number	0 number	0 number	
Cc1cc(Cl)ccc1O[C@H](C)C(=O)OCCOCCOCCOCCOC(=O)[C@@H](C)Oc1ccc(Cl)cc1C [Example 1, diester of tetraethylene glycol with R-(+)-2-(4-chloro-2-methylphenoxy)propionic acid]	approx. 40 number	0 number	approx. 15 number	0 number	1 number	0 number			
Cc1cc(Cl)ccc1O[C@@H](C)C(=O)OCCOCCOCCOCCOC(=O)[C@H](C)Oc1ccc(Cl)cc1C [Example 4, diester of tetraethylene glycol with S-(−)-2-(4-chloro-2-methylphenoxy)propionic acid]	>50 number	>50 number	>50 number	>50 number	>50 number	>50 number	approx. 40 number	approx. 40 number	
Cc1cc(Cl)ccc1O[C@H](C)C(=O)O [R-(+) isomer, R-(+)-2-(4-chloro-2-methylphenoxy)propionic acid]									markedly more effective
